The source of these data is patent US10464890B2, “PGAM1 inhibitors and methods related thereto” (Emory University, priority 2011, dated 2019).

The target of data set [1] is PGAM1 (Homo sapiens, UniProt P18669). In words: Thermal melt shift assay, PGAM1. Format: binding. The note with it: increasing concentrations, […] to 80 μM. The procedure:
In brief, thermal shift assay of compound-protein interaction was performed in 384-well PCR plates with various compound concentrations and 200 μg/ml protein in a buffer solution (20 mM Tris-HCl, 100 mM NaCl, pH 7.4). SYPRO orange was used as a dye to monitor the fluorescence change at 610 nm. Small molecules were dissolved in DMSO and added to protein solution. Final DMSO concentration of solution is 1%. Dissociation constants (Kds) for protein-ligand interaction were calculated using the method as described.
The fluorescence intensity data were fitted to Eq. (1) to obtain ΔHu, ΔCpu, and Tm by nonlinear regression using the program Prism:
The thermal unfolding parameters for 6PGD and PGAM1 alone were determined from 4 control wells, each containing 0.2 mg/mL protein.

The target of data set [2] is T1, PGAM1 in leukemia KG1a cells (Homo sapiens, UniProt P18669).
T1 construct: endogenous in cells; host or cells: KG1a leukemia cells; H1299 lung cancer cells
In words: PGAM1 inhibition in leukemia KG1a cells. Format: cell-based. The note with it: leukemia KG1a cells (2h); compared to alizarin, alizarin Red S, PGMI-001A.

Data set [3] relates to H1299 cells. Nature of the data set: Lactate production assay. Format: cell-based, human. The procedure:
Cellular lactate production was measured under normoxia with a fluorescence-based lactate assay kit (MBL). Phenol red-free RPMI medium without FBS was added to a 6 well-plate of subconfluent cells, and was incubated for 1 h at 37° C. After incubation, 1 ml of media from each well was assessed using the lactate assay kit. Cell numbers were counted by a microscope (×40). Oxygen consumption rates were measured with a Clark type electrode equipped with 782 oxygen meter (Strathkelvin Instruments). 1×10^7 cells were resuspended in RPMI 1640 medium with 10% FBS and placed into a water-jacked chamber RC300 (Strathkelvin Instruments) and recording was started immediately. Intracellular ATP concentration was measured by an ATP bioluminescent somatic cell assay kit (Sigma). 1×10^6 cells were trypsinized and resuspended in ultrapure water. Luminescence was measured with spectrofluorometer (SPECTRA Max Gemini; […]) immediately after the addition of ATP enzyme mix to cell suspension.

Data set [4] concerns H1299 cells. In words: Cell proliferation assay, H1299. Type of data set: cell-based, human. The method, then:
(§1) For leukemia cell proliferation assay, 10×10^4 cells were seeded in non-tissue culture coated 6-well plate and incubated at 37° C. for indicated times. Cell numbers were counted by trypan blue exclusion under a microscope (×40) at indicated times and the percentage of cell proliferation was determined by comparing PGAM1 knockdown cells to pLKO.1 vector expressing cells. […] Cell viability was determined by counting drug-treated cells compared to DMSO-treated control cells with trypan blue exclusion under a microscope (×40) and by using CellTiter96Aqueous One solution proliferation kit (Promega). For adherent cell proliferation assay such as H1299 and MDA-MB231 cells, 5×10^4 cells were seeded in 6-well plate 24 h before the assay starts and were cultured at 37° C. 24 h after seeding, cells were treated with 5 μM Methyl-2PG and incubated at 37° C. for indicated times. Cell proliferation was determined by the increase in cell number indicated times after the treatment starts compared to that at the treatment starts for each cell line (T=0). Cell numbers were counted by trypan blue exclusion under a microscope (×40). For adherent cell viability assay with trypan blue exclusion, 5×10^4 cells were seeded in 6-well plate 24 h before the assay starts and were cultured at 37° C. […] Cell viability was determined by counting drug-treated cells compared to DMSO-treated control cells with trypan blue exclusion under a microscope (×40). For MTT cell viability assay of adherent cells, 5×10^3 cells were seeded in 96-well plate 24 h before the assay starts and were cultured at 37° C. […] Cell viability was determined by using CellTiter96Aqueous One solution proliferation kit (Promega).

Data set [5] has as its system diverse human cancer and leukemia cells. Nature of the data set: Cell proliferation of diverse cancer and leukemia cells. To be noted: diverse human cancer and leukemia cells incl. H1299, KG1a, 212LN; 72h. Type of data set: cell-based. The procedure:
as §1, with “(×40).” for “(×40). For adherent cell viability assay with trypan blue exclusion, 5×10^4 cells were seeded in 6-well plate 24 h before the assay starts and were cultured at 37° C.”, “(×40).” for “(×40). For MTT cell viability assay of adherent cells, 5×10^3 cells were seeded in 96-well plate 24 h before the assay starts and were cultured at 37° C.”

Data set [6] concerns human dermal fibroblasts (HDF), human foreskin fibroblasts (HFF), HaCaT keratinocyte cells, melanocyte PIG1 cells. Nature of the data set: Cell proliferation of normal human cells. Type of data set: cell-based. The method, then:
as §1, with “(×40).” for “(×40). For adherent cell viability assay with trypan blue exclusion, 5×10^4 cells were seeded in 6-well plate 24 h before the assay starts and were cultured at 37° C.”, “(×40).” for “(×40). For MTT cell viability assay of adherent cells, 5×10^3 cells were seeded in 96-well plate 24 h before the assay starts and were cultured at 37° C.”

Data set [7] can be described thus: Toxicity studies in nude mice. Type of data set: in vivo. The procedure: Peripheral blood samples were collected and applied for analysis of hematological properties. The vital organs were collected for histo-pathological analysis. […] Images were analyzed and captured using ImageScope software (Aperio Technologies Inc.) without any additional or subsequent image processing (high power images are 20×; low power images are either 4.0×, 4.2×, or 4.4×). Scale bars are indicated.
An in vivo drug treatment experiment was performed. […] Xenograft experiments were performed by injecting H1299 cells to nude mice.

The test system of data set [8] is peripheral blood mononucleocytes and bone marrow CD34+ cells from healthy donors. In words: Cells from healthy human donors. Format: cell-based. An excerpt:
Approval of use of human specimens was given by the Institutional Review Board of Emory University School of Medicine. All clinical samples were obtained with informed consent with approval by the Emory University Institutional Review Board. Clinical information for the patients was obtained from the pathological files at Emory University Hospital under the guidelines and with approval from the Institutional Review Board of Emory University School of Medicine and according to the Health Insurance Portability and Accountability Act. Only samples from patients that were not previously treated with chemotherapy or radiation therapy were used. Mononuclear cells (MNCs) were isolated from peripheral blood and bone marrow samples from human leukemia patients or peripheral blood samples from healthy donors using lymphocyte separation medium (Cellgro).
Only samples from patients that were not previously treated with chemotherapy or radiation therapy were used. Mononuclear cells (MNCs) were isolated from peripheral blood and bone marrow samples from human leukemia patients or peripheral blood samples from healthy donors using lymphocyte separation medium (Cellgro).

The subject of data set [9] is H1299 cells with stable knockdown of PGAM1. In words: 14C-serine synthesis assay. Format: cell-based, human. To be noted: methyl-2-PG. The procedure: Serine synthesis flux from ^14C glucose was measured as described previously (Parry, 1957) with modification. Sub-confluent cells seeded on a 6 cm dish were incubated in complete medium spiked with 40 μCi/ml of D-[U-^14C]-glucose overnight. The incubated cells were lysed with hypotonic lysis buffer (20 mM HEPES (pH 7.0), 5 mM KCl, 1 mM MgCl2, 5 mM DTT, and protease inhibitor cocktail), and the cell lysates were spun down by centrifugation to remove cell debris. The supernatant containing 100 μg of total protein was spotted onto Whatman 3MM paper. One-dimensional chromatogram was run in water saturated phenol, and two-dimentional chromatogram was run in 1-butanol:acetic acid:water solution at the ratio of 100:22:50. L-serine (Sigma) was used as a standard. L-serine dissolved in hypotonic lysis buffer was spotted onto another paper, which was run under the same conditions in parallel with the cell lysate sample. Spots of amino acids were developed by ninhydrin reaction. The spot corresponding to serine was identified based on R^f values of L-serine standard, cut out from the paper, and directly subjected to scintillation counting.

“Also recorded” adds a separate entry of the source.

T1 sequence (P18669 whole entry): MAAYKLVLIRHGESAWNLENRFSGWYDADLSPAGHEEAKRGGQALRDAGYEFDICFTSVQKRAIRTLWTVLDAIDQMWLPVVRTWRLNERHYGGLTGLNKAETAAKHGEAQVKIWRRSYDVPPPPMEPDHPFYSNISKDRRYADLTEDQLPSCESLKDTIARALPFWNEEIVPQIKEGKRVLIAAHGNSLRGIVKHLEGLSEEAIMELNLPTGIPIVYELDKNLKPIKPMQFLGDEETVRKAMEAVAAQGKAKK
Sequence of PGAM1 (P18669 whole entry): as above

For the compound `O=C1c2ccccc2C(=O)c2c1cc(S(=O)(=O)Nc1ccc(C(F)(F)F)cc1)c(O)c2O` [PGMI-004A, N-(4-trifluoromethyl)-penyl-3,4-dihydroxy-9,10-dioxo-2-anthracenesulfonamide], the “PGAM1 melting temperature (Tm)” value in data set [1] is reported as “raises PGAM1 melting temperature (Tm) in a dose-dependent manner”. Also, the “potency of PGAM1 inhibition in cells” value in data set [2] is recorded as “more potent activity; also recorded: enhanced potency to inhibit PGAM1”. Also, in data set [3] (H1299 cells treated with PGMI-004A), the lactate production entry is “significantly reduced lactate production”. The cell proliferation entry in [4] (H1299 cells) was “reduced”; in data set [5], “decreased cell proliferation”. Further, the “cell proliferation / non-specific toxicity in normal cells” value in data set [6] was “does not affect cell proliferation; also recorded: minimal non-specific toxicity”. For the same compound, the “body weight, complete blood counts (CBC) or hematopoietic properties” value in [7] (100 mg/kg/day for 7 days) is on record as “did not result in significant alteration”. The “histopathological analyses (kidney, lung, liver, spleen)” value in [7] (100 mg/kg/day intraperitoneally for 7 days, vs vehicle) was “did not reveal significant differences; also recorded: no notable differences”. Moreover, in [7] (100 mg/kg/day intraperitoneally, chronic injection for 4 weeks), the tolerability result is given as “well-tolerated”. For the same compound, the “cell viability of CD34+ cells isolated from bone marrow samples” value in data set [8] (four healthy donors) is “did not affect cell viability”. In addition, in data set [8] (two healthy human donors, 120 h), the “cell viability of mononucleocytes in peripheral blood samples” value is “no toxicity; also recorded: did not affect cell viability”.

Turning to `COC(=O)[C@@H](CO)OP(=O)(O)O` [methyl-2-PG, methyl ester of D(+)-2-phosphoglyceric acid, reference compound], the lactate production entry in [3] (H1299 cells with stable knockdown of PGAM1, methyl-2-PG) is recorded as “rescues the reduced lactate production”. In addition, the cell proliferation entry in data set [4] (H1299 PGAM1 knockdown cells, methyl-2-PG) is given as “partially restores the reduced cell proliferation”. Also, the serine biosynthesis result in [9] was “rescues the phenotype”.
